# Columns and labels:
# [1] = test system: acyl coenzyme-A:cholesterol-O-acyl transferase (ACAT;EC 2.3.1.26); test: In vitro ACAT inhibition in rat liver microsomes incubated with radiolabelled oleoyl-CoA; type: biochemical
# Description: In assays performed in vitro, microsomes (prepared from the livers of rats fed a diet supplemented with 0.5%w/w cholesterol and 0.25%w/w cholic acid for 7 days) were incubated with radiolabelled oleoyl-CoA in the presence of compounds according to the invention at a concentration (in »g/m1) as shown in Table 1.
# plasma cholesterol level = test: In vivo inhibition of the increase in plasma cholesterol level in cholesterol/cholic acid-fed rats; details: increase in plasma cholesterol level measured after 3 days, relative to control animals on cholesterol supplemented diet; for In-vivo % Reduction / inhibition in vivo at 0.03 % strength: dose 0.03 %w/w in diet; for inhibition in vivo at 0.03 % strength / inhibition in vivo at 0.01 % strength: Rattus norvegicus, feed or water, 72 h, read-out: In-vivo % Reduction; for inhibition in vivo at 0.01 % strength: dose 0.01 %w/w in diet
# [2] = concentration 0.5 »g/m1, microsomes from livers of rats fed 0.5%w/w cholesterol and 0.25%w/w cholic acid for 7 days
# [3] = concentration 1.0 »g/m1, microsomes from livers of rats fed 0.5%w/w cholesterol and 0.25%w/w cholic acid for 7 days
SMILES,"In-vitro % Inhibition [1, 2]",also measured
"Cn1ccnc1SCCCCCCCCCSc1nc(-c2ccccc2)c(-c2ccccc2)[nH]1 [Compound T, 2-[9-(1-Methylimidazol-2-ylthio)nonylthio]-4,5-diphenylimidazole]",91%,–
"Cn1ccnc1SCCCSc1nc(-c2ccccc2)c(-c2ccccc2)[nH]1 [C, 2-[3-(1-Methylimidazol-2-ylthio)propylthio]-4,5-diphenylimidazole]",93%,In-vivo % Reduction (plasma cholesterol level): 66%
"Cn1ccnc1S(=O)(=O)CCCSc1nc(-c2ccccc2)c(-c2ccccc2)[nH]1 [Compound H, 2-[3-(1-Methylimidazol-2-ylsulphonyl)propylthio]-4,5-diphenylimidazole]",90%,inhibition in vivo at 0.03 % strength (plasma cholesterol level): 108%
"Cn1ccnc1S(=O)(=O)CCCCS(=O)(=O)c1nc(-c2ccccc2)c(-c2ccccc2)[nH]1 [Compound O, 2-[4-(1-Methylimidazol-2-ylsulphonyl)butylsulphonyl]-4,5-diphenylimidazole]",23%,–
"Cl.Cl.c1ccc(-c2nc(SCCCSc3nc(-c4ccccn4)c(-c4ccccn4)[nH]3)[nH]c2-c2ccccc2)cc1 [Compound K, 1-(4,5-Diphenylimidazol-2-ylthio)-3-[(4,5-dipyrid-2-yl)imidazol-2-ylthio]propane dihydrochloride]",77%,inhibition in vivo at 0.01 % strength (plasma cholesterol level): 4%
"Cn1nnnc1S(=O)(=O)CCCSc1nc(-c2ccccc2)c(-c2ccccc2)[nH]1 [Compound L, 2-[3-(1-Methyltetrazol-5-ylsulphonyl)propylthio]-4,5-diphenylimidazole]",19%,–
"c1ccc(-c2nc(SCCCSc3nc(-c4ccccc4)c(-c4ccccc4)[nH]3)[nH]c2-c2ccccc2)cc1 [F, 1,3-Bis(4,5-diphenylimidazol-2-ylthio)propane]",–,"In-vitro % Inhibition [1, 3]: 96%; inhibition in vivo at 0.03 % strength (plasma cholesterol level): 72%"
"c1ccc(-c2nc(SCCCSc3ccncc3)[nH]c2-c2ccccc2)cc1 [Compound B, 2-[3-(Pyrid-4-ylthio)propylthio]-4,5-diphenylimidazole]",90%,inhibition in vivo at 0.03 % strength (plasma cholesterol level): 91%
"c1ccc(-c2nc(SCCCSc3ncccn3)[nH]c2-c2ccccc2)cc1 [A, 2-[3-(Pyrimidin-2-ylthio)propylthio]-4,5-diphenylimidazole]",88%,inhibition in vivo at 0.03 % strength (plasma cholesterol level): 7%
"c1ccc(-c2nc(SCCSc3nc(-c4ccccc4)c(-c4ccccc4)[nH]3)[nH]c2-c2ccccc2)cc1 [E, 1,2-Bis(4,5-diphenylimidazol-2-ylthio)ethane]",–,"In-vitro % Inhibition [1, 3]: 88%"
"Cn1ccnc1SCCCCSc1nc(-c2ccccc2)c(-c2ccccc2)[nH]1 [N, 2-[4-(1-Methylimidazol-2-ylthio)butylthio]-4,5-diphenylimidazole]",94%,inhibition in vivo at 0.03 % strength (plasma cholesterol level): 98%
"Cl.Cl.Cn1ccnc1SCCCSc1nc(-c2ccccc2)c(-c2ccccc2)[nH]1 [Compound D, 2-[3-(1-Methylimidazol-2-ylthio)propylthio]-4,5-diphenylimidazole dihydrochloride]",–,In-vivo % Reduction (plasma cholesterol level): 88%
"Cn1nnnc1SCCCSc1nc(-c2ccccc2)c(-c2ccccc2)[nH]1 [J, 2-[3-(1-Methyltetrazol-5-ylthio)propylthio]-4,5-diphenylimidazole]",84%,inhibition in vivo at 0.01 % strength (plasma cholesterol level): 17%
"Cc1cc(C)nc(SCCCSc2nc(-c3ccccc3)c(-c3ccccc3)[nH]2)n1 [Compound G, 2-[3-(4,6-Dimethylpyrimidin-2-ylthio)propylthio]-4,5-diphenylimidazole]",80%,–
"C(=C\CSc1nc(-c2ccccc2)c(-c2ccccc2)[nH]1)/CSc1nc(-c2ccccc2)c(-c2ccccc2)[nH]1 [Q, E-1,4-Bis(4,5-diphenylimidazol-2-ylthio)but-2-ene]",98%,inhibition in vivo at 0.01 % strength (plasma cholesterol level): 74%
"Cn1cnnc1SCCCSc1nc(-c2ccccc2)c(-c2ccccc2)[nH]1 [Compound I, 2-[3-(4-Methyl-1,2,4-triazol-3-ylthio)propylthio]-4,5-diphenylimidazole]",84%,inhibition in vivo at 0.01 % strength (plasma cholesterol level): 5%
"c1ccc(-c2nc(SCCCCSc3nc(-c4ccccc4)c(-c4ccccc4)[nH]3)[nH]c2-c2ccccc2)cc1 [P, 1,4-Bis(4,5-diphenylimidazol-2-ylthio)butane]",97%,–
"c1ccc(-c2nc(SCCCCCCCCCSc3nc(-c4ccccc4)c(-c4ccccc4)[nH]3)[nH]c2-c2ccccc2)cc1 [Compound S, 1,9-Bis(4,5-diphenylimidazol-2-ylthio)nonane]",77%,–
"c1ccc(-c2nc(SCCCSc3ncc[nH]3)[nH]c2-c2ccccc2)cc1 [M, 2-[3-(Imidazol-2-ylthio)propylthio]-4,5-diphenylimidazole]",95%,inhibition in vivo at 0.01 % strength (plasma cholesterol level): 107%
"Cn1ccnc1SCCCCCCSc1nc(-c2ccccc2)c(-c2ccccc2)[nH]1 [Compound R, 2-[6-(1-Methylimidazol-2-ylthio)hexylthio]-4,5-diphenylimidazole]",95%,–

# From EP0505468B1, “IMIDAZOLE DERIVATIVES AND THEIR USE AS ACYL COENZYME-A INHIBITORS” (RHONE-POULENC SANTE, priority 1989, dated 1991)
